# Experimental data: US6914045B2, “Glycopeptide antibiotics” (Wyeth Holdings Corporation, priority 2001, dated 2005)
# Columns and labels:
# [1] = system: Enterococcus sp.; assay: in vitro antibacterial evaluation, MIC by broth dilution; assay type: cell-based; conditions: broth dilution, 18 hours at 35° C.
# Summary of the method: (§1)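 Inoculum 5×10^5 CFU/mL; concentrations 64 to 0.06 μg/mL; MIC defined as lowest inhibitory level. Conducted by broth dilution under NCCLS guidelines.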
# [2] = system: Staphylococcus sp.; assay: as above; assay type: cell-based; conditions: broth dilution, 18 hours at 35° C.; for MIC Staphylococcus aureus (ATCC 29213): strain ATCC 29213; for MIC Staphylococcus aureus (GC 1131): strain GC 1131; for MIC Staphylococcus aureus (GC 3051): strain GC 3051; for MIC Staphylococcus aureus (GC 3053): strain GC 3053; for MIC Staphylococcus aureus (GC 4541): strain GC 4541; for MIC Staphylococcus aureus (GC 4542): strain GC 4542; for MIC Staphylococcus aureus-SMITH (GC 4543): strain GC 4543; for MIC Staphylococcus aureus (GC 4544): strain GC 4544; for MIC Staphylococcus aureus (GC 4545): strain GC 4545; for MIC Staphylococcus haemolyticus (GC 4546): strain GC 4546; for MIC Coagulase Negative Staphylococcus (GC 4547): strain GC 4547; for MIC Coagulase Negative Staphylococcus (GC 4548): strain GC 4548; for MIC Coagulase Negative Staphylococcus (GC 4549): strain GC 4549; for MIC Coagulase Negative Staphylococcus (GC 4551): strain GC 4551
# Summary of the method: as §1
# [3] = system: Streptococcus sp.; assay: as above; assay type: cell-based; conditions: broth dilution, 18 hours at 35° C.
# Summary of the method: as §1
# [4] = system: Staphylococcus aureus-SMITH (GC 4543); assay: acute lethal infection in mice; assay type: in vivo; conditions: acute lethal infection, female CD-1 mice, intraperitoneal challenge, intravenous 30 min. after infection, 7 day survival
# Summary of the method: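 ED50 from 7 day survival ratios pooled over 3 separate tests. Female CD-1 mice, 20+/−2 gm, ip bacterial challenge (trypticase soy broth or hog gastric mucin) lethal to untreated controls in 24-48 hr; iv dosing 30 min after infection in saline or 5% dextrose, n=5/dose.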
# [5] = anatomic pathology (histopathology of heart and kidney) in mice; assay type: in vivo; conditions: CD-1 mice, 20 mg/kg intravenously daily for 9 days, necropsy day 10, microscopic histopathology
# Description: Samples of tissues from necropsied mice were formalin-fixed, paraffin-embedded, sectioned, stained with hematoxylin and eosin, and examined microscopically. Histopathologic findings were recorded. These findings were subjectively graded on a scale corresponding to slight, mild, moderate, marked and severe as compared to untreated controls.
# [6] = system: Escherichia coli; assay: in vitro antibacterial evaluation, MIC by broth dilution; assay type: cell-based; conditions: 18 hours at 35° C.
# [7] = inoculum 5×10^5 CFU/mL, strain ATCC 29212
# [8] = inoculum 5×10^5 CFU/mL, strain GC 2242
# [9] = inoculum 5×10^5 CFU/mL, strain GC 2243
# [10] = inoculum 5×10^5 CFU/mL, strain GC 2691
# [11] = inoculum 5×10^5 CFU/mL, strain GC 3059
# [12] = inoculum 5×10^5 CFU/mL, strain GC 4552
# [13] = inoculum 5×10^5 CFU/mL, strain GC 4553
# [14] = inoculum 5×10^5 CFU/mL, strain GC 4554
# [15] = inoculum 5×10^5 CFU/mL, strain GC 4556
# [16] = inoculum 5×10^5 CFU/mL, strain GC 4557
# [17] = inoculum 5×10^5 CFU/mL, strain GC 4558
# [18] = inoculum 5×10^5 CFU/mL, strain GC 6189
# [19] = inoculum 5×10^5 CFU/mL, strain ATCC 6301
# [20] = inoculum 5×10^5 CFU/mL, strain GC 1894
# [21] = inoculum 5×10^5 CFU/mL, strain GC 4563
# [22] = inoculum 5×10^5 CFU/mL, strain GC 4564
# [23] = inoculum 5×10^5 CFU/mL, strain GC 4565
structure (smiles),measurement,setting,value
"CC(c1ccccc1)C1NC(=O)CNC(=O)C(CO)NC(=O)C(CC2CNC(=N)N2C2OC(CO)C(O)C(O)C2O)NC(=O)C(CC2CNC(=N)N2)NC(=O)C(Cc2ccc(OC3OC(CO)C(OC4OC5COC6(OC5C(O)C4O)C4CC5CC(C4)CC6C5)C(O)C3O)cc2)NC1=O (stereo not drawn) [Example 219, Cyclo[3-(2-iminoimidazolidin-4-yl)alanyl-3-(3-hexopyranosyl-2-iminoimidazolidin-4-yl)-alanylserylglycyl-β-methylphenylalanyl-O-[4-O-[4,6-O-(2-adamantylidene)hexopyranosyl]-hexopyranosyl]tyrosyl]]",MIC Enterococcus avium (GC 4558),[1],4 µg/mL
same,MIC Enterococcus faecalis (ATCC 29212),[1],16 µg/mL
same,MIC Enterococcus faecalis (GC 2242),[1],8 µg/mL
same,MIC Enterococcus faecalis (GC 2691),[1],8 µg/mL
same,MIC Enterococcus faecalis (GC 3059),[1],16 µg/mL
same,MIC Enterococcus faecalis (GC 4552),[1],8 µg/mL
same,MIC Enterococcus faecalis (GC 4553),[1],8 µg/mL
same,MIC Enterococcus faecalis (GC 4554),[1],8 µg/mL
same,MIC Enterococcus faecalis (GC 6189),[1],8 µg/mL
same,MIC Enterococcus faecium (GC 2243),[1],8 µg/mL
same,MIC Enterococcus faecium (GC 4556),[1],8 µg/mL
same,MIC Enterococcus faecium (GC 4557),[1],4 µg/mL
same,MIC Enterococcus faecalis (ATCC 29212),[1]; [7],16 µg/mL
same,MIC Enterococcus faecalis (GC 2242),[1]; [8],8 µg/mL
same,MIC Enterococcus faecium (GC 2243),[1]; [9],8 µg/mL
same,MIC Enterococcus faecalis (GC 2691),[1]; [10],8 µg/mL
same,MIC Enterococcus faecalis (GC 3059),[1]; [11],16 µg/mL
same,MIC Enterococcus faecalis (GC 4552),[1]; [12],8 µg/mL
same,MIC Enterococcus faecalis (GC 4553),[1]; [13],8 µg/mL
same,MIC Enterococcus faecalis (GC 4554),[1]; [14],8 µg/mL
same,MIC Enterococcus faecium (GC 4556),[1]; [15],8 µg/mL
same,MIC Enterococcus faecium (GC 4557),[1]; [16],4 µg/mL
same,MIC Enterococcus avium (GC 4558),[1]; [17],4 µg/mL
same,MIC Enterococcus faecalis (GC 6189),[1]; [18],8 µg/mL
same,MIC Staphylococcus aureus (ATCC 29213),[2],4 µg/mL
same,MIC Staphylococcus aureus (GC 1131),[2],4 µg/mL
same,MIC Staphylococcus aureus (GC 3051),[2],2 µg/mL
same,MIC Staphylococcus aureus (GC 3053),[2],2 µg/mL
same,MIC Staphylococcus aureus (GC 4541),[2],2 µg/mL
same,MIC Staphylococcus aureus (GC 4542),[2],2 µg/mL
same,MIC Staphylococcus aureus-SMITH (GC 4543),[2],2 µg/mL
same,MIC Staphylococcus aureus (GC 4544),[2],8 µg/mL
same,MIC Staphylococcus aureus (GC 4545),[2],2 µg/mL
same,MIC Staphylococcus haemolyticus (GC 4546),[2],2 µg/mL
same,MIC Coagulase Negative Staphylococcus (GC 4547),[2],2 µg/mL
same,MIC Coagulase Negative Staphylococcus (GC 4548),[2],2 µg/mL
same,MIC Coagulase Negative Staphylococcus (GC 4549),[2],2 µg/mL
same,MIC Coagulase Negative Staphylococcus (GC 4551),[2],4 µg/mL
same,MIC Coagulase Negative Staphylococcus (GC 6257),[2]; strain GC 6257,1 µg/mL
same,MIC Streptococcus agalactiae (GC 4564),[3],2 µg/mL
same,MIC Streptococcus pneumoniae (ATCC 6301),[3],0.5 µg/mL
same,MIC Streptococcus pneumoniae (GC 1894),[3],1 µg/mL
same,MIC Streptococcus pneumoniae (GC 4565),[3],2 µg/mL
same,MIC Streptococcus pyogenes (GC 4563),[3],2 µg/mL
same,MIC Streptococcus pneumoniae (ATCC 6301),[3]; [19],0.5 µg/mL
same,MIC Streptococcus pneumoniae (GC 1894),[3]; [20],1 µg/mL
same,MIC Streptococcus pyogenes (GC 4563),[3]; [21],2 µg/mL
same,MIC Streptococcus agalactiae (GC 4564),[3]; [22],2 µg/mL
same,MIC Streptococcus pneumoniae (GC 4565),[3]; [23],2 µg/mL
same,"median effective dose (ED50), Staphylococcus aureus-SMITH (GC 4543)",[4],0.5 mg/kg
same,"Anatomical Pathology (Day 10), Heart",[5],0
same,"Anatomical Pathology (Day 10), Kidney",[5],+++
same,MIC Escherichia coli (ATCC 25922),[6],64 µg/mL
same,MIC Escherichia coli (GC 4559),[6],64 µg/mL
same,MIC Escherichia coli (GC 4560),[6],4 µg/mL
N=C1NCC(C(O)C2NC(=O)C(Cc3ccc(OC4OC(CO)C(OC5OC6COC7(OC6C(O)C5O)C5CC6CC(C5)CC7C6)C(O)C4O)cc3)NC(=O)C(Cc3ccccc3)NC(=O)CNC(=O)C(CO)NC(=O)C(C(O)C3CNC(=N)N3C3OC(CO)C(O)C(O)C3O)NC2=O)N1 (stereo not shown) [Example 220],MIC Enterococcus avium (GC 4558),[1],2 µg/mL
same,MIC Enterococcus faecalis (ATCC 29212),[1],2 µg/mL
same,MIC Enterococcus faecalis (GC 2242),[1],1 µg/mL
same,MIC Enterococcus faecalis (GC 2691),[1],2 µg/mL
same,MIC Enterococcus faecalis (GC 3059),[1],2 µg/mL
same,MIC Enterococcus faecalis (GC 4552),[1],2 µg/mL
same,MIC Enterococcus faecalis (GC 4553),[1],1 µg/mL
same,MIC Enterococcus faecalis (GC 4554),[1],2 µg/mL
same,MIC Enterococcus faecalis (GC 6189),[1],1 µg/mL
same,MIC Enterococcus faecium (GC 2243),[1],1 µg/mL
same,MIC Enterococcus faecium (GC 4556),[1],1 µg/mL
same,MIC Enterococcus faecium (GC 4557),[1],1 µg/mL
same,MIC Enterococcus faecalis (ATCC 29212),[1]; [7],2 µg/mL
same,MIC Enterococcus faecalis (GC 2242),[1]; [8],1 µg/mL
same,MIC Enterococcus faecium (GC 2243),[1]; [9],1 µg/mL
same,MIC Enterococcus faecalis (GC 2691),[1]; [10],2 µg/mL
same,MIC Enterococcus faecalis (GC 3059),[1]; [11],2 µg/mL
same,MIC Enterococcus faecalis (GC 4552),[1]; [12],2 µg/mL
same,MIC Enterococcus faecalis (GC 4553),[1]; [13],1 µg/mL
same,MIC Enterococcus faecalis (GC 4554),[1]; [14],2 µg/mL
same,MIC Enterococcus faecium (GC 4556),[1]; [15],1 µg/mL
same,MIC Enterococcus faecium (GC 4557),[1]; [16],1 µg/mL
same,MIC Enterococcus avium (GC 4558),[1]; [17],2 µg/mL
same,MIC Enterococcus faecalis (GC 6189),[1]; [18],1 µg/mL
same,MIC Staphylococcus aureus (ATCC 29213),[2],0.5 µg/mL
same,MIC Staphylococcus aureus (GC 1131),[2],1 µg/mL
same,MIC Staphylococcus aureus (GC 3051),[2],1 µg/mL
same,MIC Staphylococcus aureus (GC 3053),[2],1 µg/mL
same,MIC Staphylococcus aureus (GC 4541),[2],1 µg/mL
same,MIC Staphylococcus aureus (GC 4542),[2],0.5 µg/mL
same,MIC Staphylococcus aureus-SMITH (GC 4543),[2],1 µg/mL
same,MIC Staphylococcus aureus (GC 4544),[2],1 µg/mL
same,MIC Staphylococcus aureus (GC 4545),[2],0.5 µg/mL
same,MIC Staphylococcus haemolyticus (GC 4546),[2],0.25 µg/mL
same,MIC Coagulase Negative Staphylococcus (GC 4547),[2],0.5 µg/mL
same,MIC Coagulase Negative Staphylococcus (GC 4548),[2],0.25 µg/mL
same,MIC Coagulase Negative Staphylococcus (GC 4549),[2],0.25 µg/mL
same,MIC Coagulase Negative Staphylococcus (GC 4551),[2],0.5 µg/mL
same,MIC Streptococcus agalactiae (GC 4564),[3],<0.06 µg/mL
same,MIC Streptococcus pneumoniae (ATCC 6301),[3],<0.06 µg/mL
same,MIC Streptococcus pneumoniae (GC 1894),[3],<0.06 µg/mL
same,MIC Streptococcus pneumoniae (GC 4565),[3],<0.06 µg/mL
same,MIC Streptococcus pyogenes (GC 4563),[3],<0.06 µg/mL
same,MIC Streptococcus pneumoniae (ATCC 6301),[3]; [19],<0.06 µg/mL
same,MIC Streptococcus pneumoniae (GC 1894),[3]; [20],<0.06 µg/mL
same,MIC Streptococcus pyogenes (GC 4563),[3]; [21],<0.06 µg/mL
same,MIC Streptococcus agalactiae (GC 4564),[3]; [22],<0.06 µg/mL
same,MIC Streptococcus pneumoniae (GC 4565),[3]; [23],<0.06 µg/mL
same,"median effective dose (ED50), Staphylococcus aureus-SMITH (GC 4543)",[4],0.19 mg/kg
same,"Anatomical Pathology (Day 10), Heart",[5],0
same,"Anatomical Pathology (Day 10), Kidney",[5],+++
same,MIC Escherichia coli (ATCC 25922),[6],32 µg/mL
same,MIC Escherichia coli (GC 4559),[6],16 µg/mL
same,MIC Escherichia coli (GC 4560),[6],0.5 µg/mL
